# Assay results: patent publication US20240002470A1, “Method for separation and/or detection and/or in vitro quantification of infectious compounds in biological material” (priority 2020, published 2024)
# B1: β2GPI: plasma glycoprotein called β2-glycoprotein I, grafted on beads as the reference (protein, UniProt P02749 20-345, looked up)
# Beta-2-glycoprotein 1: GRTCPKPDDLPFSTVVPLKTFYEPGEEITYSCKPGYVSRGGMRKFICPLTGLWPINTLKCTPRVCPFAGILENGAVRYTTFEYPNTISFSCNTGFYLNGADSAKCTEEGKWSPELPVCAPIICPPPSIPTFATLRVYKPSAGNNSLYRDTAVFECLPQHAMFGNDTITCTTHGNWTKLPECREVKCPFPSRPDNGFVNYPAKPTLYYKDKATFGCHDGYSLDGPEEIECTKLGNWSAMPSCKASCKVPVKKATVVYQGERVKIQEKFKNGMLHGDKVSFFCKNKEKKCSYTEDAQCIDGTIEVPKCFKEHSSLAFWKTDASDVKPC
# modifications: grafted on beads
# Legend:
# [1] = tested on: IPN virus (Infectious pancreatic necrosis virus); test: Capture of IPN virus on magnetic microbeads coated with pepβ2GPI, RT-PCR quantification; assay type: binding; conditions: for IPN Copies: virus captured on coated beads from culture supernatant
# Procedure: (§1) The pepβ2GPI were grafted onto the microbeads according to the supplier's recommendations. In summary, the microbeads are suspended in phosphate buffer at a pH of 6.0. The beads are then activated, for 15 minutes, in the presence of 1-ethyl-3-(3-Dimethylaminopropyl) carbodiimide and N-hydroxysuccinimide. After washing with HCl, 2 mM, the beads are suspended in a phosphate buffer at a pH of 7.5, containing the pepβ2GPI. The concentration of pepβ2GPI in this coupling buffer is 20 mg/L; the microbeads are incubated in the buffer with gentle and constant shaking at a temperature of 25° C. for 3 hours. The microbeads are then centrifuged at 1,500 rpm and the supernatant is removed; the centrifugation pellet is suspended in the same buffer as that used for the coupling of pepβ2GPI, which forms the suspension of microbeads coated with pepβ2GPI which we want to test.
# (§2) One hundred microliters of viral culture supernatant to be studied are placed in an Eppendorf tube with 900 microliters of Tris buffer at a pH of 7.5 and 10 microliters of microbeads. The tubes are shaken horizontally to mix the microbeads well, and each tube is incubated at 37° C. or at room temperature (RT=22° C.) for 30 minutes. In each tube, the microbeads are then separated from the liquid phase by means of a magnet, placed externally against the wall of the tube, and the viral RNA is extracted. The beads are brought into contact with a viral lysis buffer, included in an RNA extraction kit: QIAamp RNA viral kit, sold by QIAGEN and the viral RNA is isolated according to the seller's recommendations.
# The virus used is the IPN virus (Infectious pancreatic necrosis virus), responsible for necrosis of the pancreas in salmon, originating from a culture supernatant. The same protocol as described in example 1 was carried out.
# [2] = tested on: HCV virus (hepatitis C virus); test: Capture of HCV virus from patient plasma on magnetic microbeads coated with pepβ2GPI, RT-PCR quantification; assay type: binding; conditions: for HCV/run copies: per run, virus captured on coated beads from plasma of patients
# Procedure: as §1, §2
# The virus used is the HCV virus (hepatitis C virus), present in the plasma of patients. The same protocol as described in example 1 was carried out.
# [3] = tested on: E. coli B6054; test: Capture of E. coli B6054 on magnetic microbeads, culture on TS agar and counting; assay type: binding, Escherichia coli; conditions: E. coli B6054 colonies from captured beads
# [4] = tested on: E. coli ATCC 8739; test: Capture of E. coli ATCC 8739 on magnetic microbeads, culture and counting; assay type: binding, Escherichia coli; conditions: E. coli ATCC 8739 colonies from captured beads
# Procedure: (§3) One ml of the culture of bacteria to be studied is placed in a hemolysis tube. 100 μl of buffer are added, the trade name of which is TTGB, then 20 μl of microbeads. The tube is stirred horizontally, to mix the microbeads well, and incubated at 37° C. or at room temperature (TA=22° C.) for half an hour. At the end of the incubation, the microbeads are separated from the liquid phase by means of a magnet, placed externally against the wall of the tube. The microbeads are then washed twice with LB medium and then resuspended in 1 ml of BTS culture medium (Tripticase-Soy broth) having the following formulation: […]
# (§4) This culture medium is brought to a boil and then autoclaved, to make it sterile, before use. 20 μl of the microbead suspension are taken and spread in a Petri dish containing TS agar (Trypticase-Soya agar) having the following formulation: […]
# (§5) The Petri dishes are incubated at +37° C. for 24 hours. The bacteria that have grown on the agar are then counted.
# The used bacteria were obtained from a collection strain of Escherichia coli (E. coli), ATCC 8739. The same experiment as that described in the previous example was carried out.
# [5] = tested on: bacteria present in treated wastewater; test: Capture of bacteria present in treated wastewater on magnetic microbeads, culture and counting; assay type: binding
# Procedure: as §3, §4, §5
# The beads, on which β2GPI and peptides derived therefrom were grafted, were used to capture the bacteria present in treated wastewater. This water was recovered at the outlet of the purifier from the Grau-du-Roi treatment plant. The same experiment as that described in the previous example was carried out.
# [6] = tested on: Yeast; test: Capture from blood culture on magnetic microbeads, culture on TS agar: yeast; assay type: binding
# Procedure: (§6) The beads, on which β2GPI and peptides derived therefrom were grafted, were used for the capture of bacteria present in human blood and highlighted by blood culture.
# (§7) These blood cultures are carried out by placing a venous blood sample […] in aerobic vials of BacT/ALERT®3D type. These flasks are then incubated in an automated system at 35° C. for at least 5 days. The bottles are equipped with a colorimetric detection system with a sensor located at the base of each bottle. Carbon dioxide produced by growing bacteria changes the color of the sensor; this change in color is detected by an automated system and indicates the presence of bacterial growth: these blood cultures are said to be positive. In the BacT/ALERT®3D vials there are particles of activated carbon, which inhibit antibiotics potentially present in the blood of patients, thereby improving the detection of microorganisms. To confirm the presence of bacteria in blood cultures which have been found positive, the hospital performs a culture on blood agar. […]
# (§8) To test the interaction of microbeads coated with β2GPI and the peptides derived from them, with bacteria present in the blood, 1 ml of blood culture is taken from each sample and placed in a 15 ml tube. […] The bacteria that have grown on the agar were then counted.
# [7] = tested on: SCN; test: Capture from blood culture on magnetic microbeads, culture on TS agar: SCN; assay type: binding
# Procedure: as §6, §7, §8
# [8] = tested on: E. faecium; test: Capture from blood culture on magnetic microbeads, culture on TS agar: E. faecium; assay type: binding
# Procedure: as §6, §7, §8
# [9] = tested on: S. maltophilia; test: Capture from blood culture on magnetic microbeads, culture on TS agar: S. maltophilia; assay type: binding
# Procedure: as §6, §7, §8
molecule,measurement,setting,value
H-((SSLAFWK)2-K)2-K—NH2 [Peptide P11],% compared to β2GPI,[1]; IPN copies captured relative to β2GPI beads,(175%)
same,IPN Copies,[1],21 copies
same,% compared to β2GPI,[2]; HCV copies captured relative to β2GPI beads,(86%)
same,HCV/run copies,[2],97 copies
same,% compared to β2GPI,[3],91%
same,% compared to β2GPI,[4],99%
same,% compared to β2GPI,[5],105%
same,% compared to β2GPI,[6],89%
same,% compared to β2GPI,[7],101%
same,% compared to β2GPI,[8],88%
same,% compared to β2GPI,[9],29%
B1,IPN Copies,[1],12 copies
same,HCV/run copies,[2],113 copies
same,% compared to β2GPI,[3],100%
same,% compared to β2GPI,[4],100%
same,% compared to β2GPI,[5],100%
same,% compared to β2GPI,[6],100%
same,% compared to β2GPI,[7],100%
same,% compared to β2GPI,[8],100%
same,% compared to β2GPI,[9],100%
